Among the data in patent US9006450B2 (Boehringer Ingelheim International GmbH, priority 2010, dated 2015) are IC50 values, retold here.

For this assay, the target named is T1, human ACC2 (Homo sapiens, UniProt O00763).
T1 construct: made in house; host or cells: insect cells (baculoviral expression system)
T1 sequence (O00763 129-2458 limits assumed): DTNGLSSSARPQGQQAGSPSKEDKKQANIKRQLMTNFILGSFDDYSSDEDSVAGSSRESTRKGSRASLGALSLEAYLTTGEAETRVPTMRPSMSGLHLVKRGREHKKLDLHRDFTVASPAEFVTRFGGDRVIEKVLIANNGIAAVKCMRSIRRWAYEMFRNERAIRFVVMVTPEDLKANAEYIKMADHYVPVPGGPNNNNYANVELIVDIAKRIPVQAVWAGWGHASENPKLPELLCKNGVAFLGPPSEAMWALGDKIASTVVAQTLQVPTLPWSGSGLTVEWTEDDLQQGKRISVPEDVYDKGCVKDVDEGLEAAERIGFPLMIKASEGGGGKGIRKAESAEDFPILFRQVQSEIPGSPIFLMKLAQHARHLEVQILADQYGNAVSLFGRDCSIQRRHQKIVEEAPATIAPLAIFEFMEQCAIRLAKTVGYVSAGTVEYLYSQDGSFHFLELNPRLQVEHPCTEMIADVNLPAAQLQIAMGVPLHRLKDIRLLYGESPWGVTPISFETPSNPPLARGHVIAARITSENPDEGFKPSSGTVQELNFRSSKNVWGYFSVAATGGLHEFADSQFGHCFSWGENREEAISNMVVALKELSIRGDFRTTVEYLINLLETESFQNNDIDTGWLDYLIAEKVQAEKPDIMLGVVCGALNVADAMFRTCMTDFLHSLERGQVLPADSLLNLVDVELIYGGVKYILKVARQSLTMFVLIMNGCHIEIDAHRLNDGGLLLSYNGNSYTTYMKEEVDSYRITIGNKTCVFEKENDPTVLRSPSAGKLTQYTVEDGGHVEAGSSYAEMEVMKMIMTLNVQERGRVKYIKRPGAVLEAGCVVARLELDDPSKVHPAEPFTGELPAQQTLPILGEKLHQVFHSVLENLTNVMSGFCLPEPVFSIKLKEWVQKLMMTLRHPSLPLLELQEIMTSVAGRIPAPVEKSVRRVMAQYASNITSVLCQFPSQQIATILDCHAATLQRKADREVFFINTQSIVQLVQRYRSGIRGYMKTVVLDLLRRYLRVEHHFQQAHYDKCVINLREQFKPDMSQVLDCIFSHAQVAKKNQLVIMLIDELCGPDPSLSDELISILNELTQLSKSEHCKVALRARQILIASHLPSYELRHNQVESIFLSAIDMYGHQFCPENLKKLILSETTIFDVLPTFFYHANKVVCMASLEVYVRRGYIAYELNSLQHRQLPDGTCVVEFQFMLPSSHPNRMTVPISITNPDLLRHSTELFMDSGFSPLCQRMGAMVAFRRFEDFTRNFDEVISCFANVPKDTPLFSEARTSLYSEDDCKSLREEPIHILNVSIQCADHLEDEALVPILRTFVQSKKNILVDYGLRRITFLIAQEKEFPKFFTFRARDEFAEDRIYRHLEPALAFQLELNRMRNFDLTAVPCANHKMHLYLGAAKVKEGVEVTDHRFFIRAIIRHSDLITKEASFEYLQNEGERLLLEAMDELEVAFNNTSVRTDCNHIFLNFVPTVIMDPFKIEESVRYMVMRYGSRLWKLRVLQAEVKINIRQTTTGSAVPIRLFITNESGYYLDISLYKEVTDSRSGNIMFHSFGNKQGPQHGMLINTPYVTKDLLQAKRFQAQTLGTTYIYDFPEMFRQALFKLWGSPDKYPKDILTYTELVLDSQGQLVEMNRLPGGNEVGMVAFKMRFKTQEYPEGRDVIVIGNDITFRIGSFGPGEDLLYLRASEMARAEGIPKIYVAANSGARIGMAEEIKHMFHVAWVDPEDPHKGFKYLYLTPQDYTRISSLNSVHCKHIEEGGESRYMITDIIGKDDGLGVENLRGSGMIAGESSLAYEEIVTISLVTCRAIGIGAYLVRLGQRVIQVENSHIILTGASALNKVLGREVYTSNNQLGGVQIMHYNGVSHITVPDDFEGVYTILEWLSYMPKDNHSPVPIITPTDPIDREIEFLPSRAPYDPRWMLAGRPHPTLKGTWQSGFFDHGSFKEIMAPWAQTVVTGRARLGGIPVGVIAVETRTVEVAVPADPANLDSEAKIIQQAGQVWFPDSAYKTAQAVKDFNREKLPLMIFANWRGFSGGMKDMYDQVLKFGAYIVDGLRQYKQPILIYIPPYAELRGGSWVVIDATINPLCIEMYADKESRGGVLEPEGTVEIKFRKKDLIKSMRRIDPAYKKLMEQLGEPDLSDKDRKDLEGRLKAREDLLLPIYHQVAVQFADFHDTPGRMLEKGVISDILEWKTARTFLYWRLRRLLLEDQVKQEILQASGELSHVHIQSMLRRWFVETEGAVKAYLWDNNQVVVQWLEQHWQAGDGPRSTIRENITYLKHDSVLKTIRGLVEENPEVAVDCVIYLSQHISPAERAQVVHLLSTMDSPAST
Kind of assay: ACC2 assay, spectrophotometric 384 well assay (NADH-linked, coupled lactate dehydrogenase/pyruvate kinase). In kind it is biochemical. Particulars: ACC2 assay, hACC2 construct lacking 128 N-terminal amino acids, 25° C., 340 nm; read-out: IC50. Put shortly: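 Human ACC2 lacking N-terminal 128 aa, baculovirus/insect-cell expressed, anion-exchange purified; 100 mM Tris pH 7.5, 10 mM citrate, 25 mM KHCO3, 1% DMSO. Started with 200 μM NADH and acetyl-CoA plus 500 μM ATP; PK/LDH-coupled A340 decrease read 15 min at 25° C. IC50 by nonlinear fit of low-control-subtracted slopes.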
As to `CCOc1ccc(N2CCC(c3ccc([C@H](C)NC(C)=O)cc3)CC2)cn1` [Example 1.4], the IC50 (commonly the concentration that gives 50% inhibition) was 320 nM.
The figure for `CCOc1ccc(N2CCC(c3ccc([C@H](C)NC(N)=O)cc3)CC2)cc1` [Example 14.5] is 1700 nM; for `COc1ccc(Nc2nccc(N3CCC(c4ccc([C@H](C)NC(C)=O)cc4)CC3)n2)cc1` [Example 11.54] it is 3700 nM; for `COc1cc2ccnc(N3CCC(c4ccc([C@H](C)NC(C)=O)cc4)CC3)c2cc1OC` [Example 4.31] it is 2000 nM.
As for `CC(=O)N[C@@H](C)c1ccc(C2CCN(c3ncc(I)cn3)CC2)cc1` [Example 4.43, (S)—N-(1-{4-[1-(5-iodopyrimidin-2-yl)-piperidin-4-yl]-phenyl}-ethyl)-acetamide], the figure is 410 nM; as for `CC(=O)N[C@@H](C)c1ccc(C2CCN(c3ccc(OC(C)C)cc3F)CC2)cc1` [Example 1.74], 100 nM.
Turning to `CCCOc1ccc(N2CCC(c3ccc([C@H](C)NC(C)=O)cc3)CC2)cc1OC` [Example 8.33], the IC50 was 3500 nM.
As for `CCC(CC)Oc1cc(N2CCC(c3ccc([C@H](C)NC(C)=O)cc3)CC2)ncn1` [Example 11.22], the figure is 820 nM; as for `CC(=O)N[C@@H](C)c1ccc(C2CCN(c3ncc(-c4cccc(CC#N)c4)cn3)CC2)cc1` [Example 10.123], 420 nM; as for `COc1cc(OC2CC2)ccc1N1CCC(c2ccc([C@H](C)NC(=O)C3CC3)cc2)CC1` [Example 1.93], 580 nM.
As for `CC(=O)N[C@@H](C)c1ccc(C2CCN(c3ncc(-c4ccco4)cn3)CC2)cc1` [Example 10.96], the figure is 600 nM; as for `CCOc1ccc(N2CCC(c3ccc([C@H](C)NC(=O)COC)cc3)CC2)cc1` [Example 6.15], 1000 nM; as for `CC(=O)N[C@@H](C)c1ccc(C2CCN(c3ccnc(Oc4cccc(F)c4)n3)CC2)cc1` [Example 11.28], 350 nM.
The figure for `CC(=O)N[C@@H](C)c1ccc(C2CCN(c3ccc(OC4CCC4)c(C#N)c3)CC2)cc1` [Example 8.12] is 2300 nM.
For the molecule `CCOc1ccc(-c2cnc(N3CCC(c4ccc([C@H](C)NC(C)=O)cc4)CC3)nc2)cc1C` [Example 10.125], the IC50 was determined as 640 nM.
On to `CC(=O)N[C@@H](C)c1ccc(C2CCN(c3ccc(OCc4cc(C)on4)cc3)CC2)cc1` [Example 9.28], for which the IC50 was found to be 780 nM.
As for `CC(=O)N[C@@H](C)c1ccc(C2CCN(c3cccc(OCC(C)(C)C)c3)CC2)cc1` [Example 9.4], the figure is 40 nM; as for `CC(=O)N[C@@H](C)c1ccc(C2CCN(c3ncc(-c4ccncc4)cn3)CC2)cc1` [Example 10.16], 710 nM.
The figure for `CCOc1ccc(N2CCC(c3ccc([C@H](C)NC(=O)C4(C)CCC4)cc3)CC2)cc1` [Example 6.45] is 2600 nM; for `CC(=O)N[C@@H](C)c1ccc(C2CCN(c3ncc(-c4ccc(C)nc4)cn3)CC2)cc1` [Example 10.33] it is 640 nM.
As for `CC(=O)N[C@@H](C)c1ccc(C2CCN(c3ccnc(Cl)c3C)CC2)cc1` [Example 5.40], the figure is 410 nM; as for `CC(=O)N[C@@H](C)c1ccc(C2CCN(c3ccc(-c4ccc5c(c4)OCO5)cn3)CC2)cc1` [Example 10.312], 160 nM; as for `CCOc1cccc(N2CCC(c3ccc([C@H](C)NC(C)=O)cc3)CC2)n1` [Example 4.27], 330 nM.
For the molecule `CC#CCOc1nccc(N2CCC(c3ccc([C@H](C)NC(C)=O)cc3)CC2)n1` [Example 11.20], the IC50 is 1300 nM.
As for `CC(=O)N[C@@H](C)c1ccc(C2CCN(c3cccc(C(=O)O)c3)CC2)cc1` [Example 28.1, (S)-3-(4-(4-(1-Acetamidoethyl)phenyl)piperidin-1-yl)benzoic acid], the IC50 came to 9300 nM.
The figure for `CC(=O)N[C@@H](C)c1ccc(C2CCN(c3ncc(-c4ccc(C5CC5)cc4)cn3)CC2)cc1` [Example 10.41] is 1900 nM; for `CCOc1ccc(-c2cnc(N3CCC(c4ccc([C@H](C)NC(C)=O)cc4)CC3)nc2)cc1` [Example 10.5] it is 540 nM.
As for `CC(=O)N[C@@H](C)c1ccc(C2CCN(c3ccc4nc(C)n(C)c4c3)CC2)cc1` [Example 1.70], the figure is 7400 nM; as for `CCC(C)Oc1ccc(N2CCC(c3ccc([C@H](C)NC(C)=O)cc3)CC2)c(C#N)c1` (stereo partly drawn) [Example 4.202], 150 nM; as for `CC(=O)N[C@@H](C)c1ccc(C2CCN(c3ccnc(OCC(C)(C)C)c3)CC2)cc1` [Example 19.5], 80 nM.
As for `CCOc1ccc(N2CCC(c3ccc([C@H](C)NC(=O)c4ccnnc4)cc3)CC2)cc1` [Example 6.19], the figure is 1500 nM.
Turning to `CC(=O)N[C@@H](C)c1ccc(C2CCN(c3ccc(OCC4CC4)c(Cl)c3)CC2)cc1` [Example 9.46], the IC50 turned out to be 560 nM.
The figure for `CC(=O)N[C@@H](C)c1ccc(C2CCN(c3ncc(C(=O)NCc4cc[nH]n4)cn3)CC2)cc1` [Example 18.21] is 2600 nM.
The figure for `CCNC(=O)c1cccc(N2CCC(c3ccc([C@H](C)NC(C)=O)cc3)CC2)c1` [Example 29.3] is 6700 nM; for `CC(=O)N[C@@H](C)c1ccc(C2CCN(c3ncc(-c4ccc(C)cc4F)cn3)CC2)cc1` [Example 10.129] it is 340 nM.
As for `CC(=O)NC(C)Cc1ccc(C2CCN(c3ccc(OCC4CC4)cc3)CC2)cc1` (stereo not drawn) [Example 2.8], the figure is 960 nM; as for `CC(=O)N[C@@H](C)c1ccc(C2CCN(c3ccc(NCC4CC4)cc3)CC2)cc1` [Example 24.4], 1300 nM; as for `CC(=O)N[C@@H](C)c1ccc(C2CCN(c3ncc(-c4ccc(C#N)nc4)cn3)CC2)cc1` [Example 10.82], 150 nM.
In the case of `CC(=O)N[C@@H](C)c1ccc(C2CCN(c3ccnc(OCC4CC4)c3)CC2)cc1` [Example 19.10], the IC50 came out at 100 nM.
For `CCC(C)Oc1ccc(N2CCC(c3ccc([C@H](C)NC(C)=O)cc3)CC2)cc1C#N` (stereo partly drawn) [Example 8.52], the IC50 was 3000 nM.
As for `CC(=O)N[C@@H](C)c1ccc(C2CCN(c3ccc(OC4CCCCC4)cc3)CC2)cc1` [Example 9.23], the figure is 200 nM; as for `CCOc1ccc(N2CCC(c3ccc([C@H](C)NC(=O)Cn4ccnc4)cc3)CC2)cc1` [Example 6.28], 1300 nM; as for `CC(=O)N[C@@H](C)c1ccc(C2CCN(c3ccc4c(c3)OCC(C)(C)CO4)CC2)cc1` [Example 1.61], 210 nM.
The figure for `CC(=O)N[C@@H](C)c1ccc(C2CCN(c3ncc(OC(C)C)cn3)CC2)cc1` [Example 4.51] is 310 nM; for `CCOc1ccc(N2CCC(c3ccc([C@H](C)NS(=O)(=O)C(F)(F)F)cc3)CC2)cc1` [Example 17.4] it is 11300 nM.
As for `COc1ccc(N2CCC(c3ccc([C@H](C)NC(C)=O)cc3)CC2)cc1Cl` [Example 8.46], the figure is 1000 nM; as for `CC(=O)N[C@@H](C)c1ccc(C2CCN(c3cc(N4CC5CCCC5C4)ncn3)CC2)cc1` (stereo partly drawn) [Example 11.77], 280 nM; as for `COc1ccccc1NC(=O)c1cnc(N2CCC(c3ccc([C@H](C)NC(C)=O)cc3)CC2)nc1` [Example 18.16], 5100 nM.
`CC(=O)N[C@@H](C)c1ccc(C2CCN(c3ncc(-c4c(C)noc4C)cn3)CC2)cc1` [Example 10.20]: the IC50 came out at 2700 nM.
`CCOc1ccc(N2CCC(c3ccc([C@H](C)NC(=O)c4nccs4)cc3)CC2)cc1` [Example 6.33]: the IC50 was determined as 3100 nM.
As for `CC(=O)N[C@@H](C)c1ccc(C2CCN(c3ncc4nc(-c5ccncc5)oc4n3)CC2)cc1` [Example 5.10], the figure is 100 nM; as for `CC(=O)N[C@@H](C)c1ccc(C2CCN(c3cc4c(cc3F)OCCCO4)CC2)cc1` [Example 1.184], 1200 nM.
The figure for `CC(=O)N[C@@H](C)c1ccc(C2CCN(c3ccc(C(=O)C4CC4)cn3)CC2)cc1` [Example 5.21] is 860 nM; for `CC(=O)N[C@@H](C)c1ccc(C2CCN(c3ncc(C(=O)N4CCc5ccccc54)cn3)CC2)cc1` [Example 18.9] it is 1600 nM.
As for `CC(=O)N[C@@H](C)c1ccc(C2CCN(c3ccnc(N4CCc5ccccc54)n3)CC2)cc1` [Example 11.49], the figure is 350 nM; as for `CC(C)Oc1ccc(N2CCC(c3ccc([C@H](C)NC(=O)N(C)C)cc3)CC2)cc1` [Example 1.127], 330 nM.
In the case of `CC(=O)N[C@@H](C)c1ccc(C2CCN(c3ncc(C(=O)Nc4cccc5c4OCO5)cn3)CC2)cc1` [Example 18.33], the IC50 worked out at 1500 nM.
As for `CC(=O)N[C@@H](C)c1ccc(C2CCN(c3ccnc(Oc4ccccc4)n3)CC2)cc1` [Example 11.119], the figure is 240 nM; as for `C[C@H](NC(=O)C1CC1)c1ccc(C2CCN(c3nc(N(C)CC4CC4)ncc3C#N)CC2)cc1` [Example 11.126], 810 nM; as for `CC(=O)N[C@@H](C)c1ccc(C2CCN(c3ncc(-c4cc5ccc(C)cc5[nH]4)cn3)CC2)cc1` [Example 10.116], 460 nM.
As for `C[C@H](NC(=O)N(C)C)c1ccc(C2CCN(c3ncc4nc(-c5ccsc5)oc4n3)CC2)cc1` [Example 4.302], the figure is 200 nM; as for `COc1ccc(N2CCC(c3ccc([C@H](C)NC(C)=O)cc3)CC2)cc1F` [Example 1.157], 580 nM; as for `CCCCOc1cccc(N2CCC(c3ccc([C@H](C)NC(C)=O)cc3)CC2)c1` [Example 8.6], 330 nM.
As for `CC(=O)N[C@@H](C)c1ccc(C2CCN(c3nccc(-c4ccc5c(c4)OCO5)n3)CC2)cc1` [Example 22.3], the figure is 1000 nM.
In the case of `COCCOc1ccc(N2CCC(c3ccc([C@H](C)NC(C)=O)cc3)CC2)cc1` [Example 9.24], the IC50 was found to be 470 nM.
On to `CC(=O)N[C@@H](C)c1ccc(C2CCN(c3ncc(-c4ccc5ncccc5c4)cn3)CC2)cc1` [Example 10.70], for which the 50% inhibitory concentration (IC50) was 230 nM.
